# Laboratory results published in patent US20130244999A1, “Substituted Heterocyclic Compounds” (Incyte Corporation, priority 2008, published 2013).
# pIC50: −log10 of the molar value.
# Biological target: T1, histamine H4 receptor (Homo sapiens, UniProt Q9H3N8)
# T1 construct: expressed in transfected cells; host or cells: HEK293SFM cells (membrane preparation)
# Experiment: Inhibition of histamine H4 receptor (Table A1; H4 membrane binding assay)
# Conditions: not given
# Method: Recombinant HEK293SFM cells expressing human H1, H2, H3, H4 or mouse H4 were harvested (Packard Filtermate Harvester) in ice-cold Tris-HCl, (50 mM, pH 7.5, Sigma) with protease inhibitors (Roche) and homogenized with a Polytron homogenizer. The homogenate was centrifuged for 5 minutes at 1000 g to remove nuclei and unbroken cells. The supernatant was centrifuged at 50000 g for 30 minutes, and the resulting pellet was re-suspended in ice-cold Tris-HCl (50 mM, pH 7.5). […] Nonspecific binding was determined by inclusion of 1000× unlabeled ligands. The bound radioactivity was separated by filtration through polyethyleneimine-treated GF/B filters (Perkin Elmer). The filters were washed eight times with ice-cold Tris-HCl (50 mM, pH 7.5), and radioactivity retained on the filters was measured by liquid scintillation counting. The binding data were evaluated with Prism. […]
row,inhibition at 1 µM,SMILES
1,66%,"CC1Cc2ccc(-c3cccc(C(=O)N(C)C)n3)cc2CN1c1cc(N2CCN(C)CC2)nc(N)n1 (single isomer, unassigned) [Example 76, 6-{2-[2-Amino-6-(4-methylpiperazin-1-yl)pyrimidin-4-yl]-3-methyl-1,2,3,4-tetrahydroisoquinolin-7-yl}-N,N-dimethylpyridine-2-carboxamide]"
2,66%,"CC1Cc2ccc(-c3ccn(CC#N)n3)cc2CN1c1cc(N2CCN(C)CC2)nc(N)n1 (single isomer, unassigned) [Example 82B, (3-{2-[2-Amino-6-(4-methylpiperazin-1-yl)pyrimidin-4-yl]-3-methyl-1,2,3,4-tetrahydroisoquinolin-7-yl}-1H-pyrazol-1-yl)acetonitrile]"
3,61%,"CC1Cc2ccc(-c3ccn(CCC#N)n3)cc2CN1c1cc(N2CCN(C)CC2)nc(N)n1 (single isomer, unassigned) [Example 83B, 3-(3-{2-[2-Amino-6-(4-methylpiperazin-1-yl)pyrimidin-4-yl]-3-methyl-1,2,3,4-tetrahydroisoquinolin-7-yl}-1,1-pyrazol-1-yl)propanenitrile]"

# Same assay, conditions: histamine H4 receptor; "> a" = exceeds experiment limit
row,SMILES,pIC50
1,"CC1Cc2ccc(-c3ccnc(C(=O)N4CC(C#N)C4)c3)cc2CN1c1cc(N2CCN(C)CC2)nc(N)n1 (single isomer, unassigned) [Example 63B, 1-[(4-{2-[2-amino-6-(4-methylpiperazin-1-yl)pyrimidin-4-yl]-3-methyl-1,2,3,4-tetrahydroisoquinolin-7-yl}pyridin-2-yl)carbonyl]azetidine-3-carbonitrile]",7.33
2,"CC1Cc2ccc(-c3ccnc(C(=O)N4CCCC4)c3)cc2CN1c1cc(N2CCN(C)CC2)nc(N)n1 (single isomer, unassigned) [Example 64A, 4-(4-methylpiperazin-1-yl)-6-[3-methyl-7-[2-(pyrrolidin-1-ylcarbonyl)pyridin-4-yl]-3,4-dihydroisoquinolin-2(1H)-yl]pyrimidin-2-amine]",6.94
3,"CC1Cc2ccc(-c3ccnc(C(=O)N4CCCC4)c3)cc2CN1c1cc(N2CCN(C)CC2)nc(N)n1 (single isomer, unassigned) [Example 64B, 4-(4-methylpiperazin-1-yl)-6-[3-methyl-7-[2-(pyrrolidin-1-ylcarbonyl)pyridin-4-yl]-3,4-dihydroisoquinolin-2(1H)-yl]pyrimidin-2-amine]",7.07
4,"CC1Cc2ccc(-c3ccnc(C(=O)N4CC[C@H](O)C4)c3)cc2CN1c1cc(N2CCN(C)CC2)nc(N)n1 (single isomer, unassigned) [Example 65A]",6.97
5,"CC1Cc2ccc(-c3ccnc(C(=O)N4CC[C@H](O)C4)c3)cc2CN1c1cc(N2CCN(C)CC2)nc(N)n1 (single isomer, unassigned) [Example 65B]",7.10
6,"CC1Cc2ccc(-c3ccnc(C(=O)N4CC[C@H](F)C4)c3)cc2CN1c1cc(N2CCN(C)CC2)nc(N)n1 (single isomer, unassigned) [Example 66A]",7.19
7,"CC1Cc2ccc(-c3ccnc(C(=O)N4CC[C@H](F)C4)c3)cc2CN1c1cc(N2CCN(C)CC2)nc(N)n1 (single isomer, unassigned) [Example 66B]",7.24
8,"CC1Cc2ccc(-c3ccnc(C(=O)N[C@H](C)CO)c3)cc2CN1c1cc(N2CCN(C)CC2)nc(N)n1 (single isomer, unassigned) [Example 69]",7.18
9,"CC1Cc2ccc(-c3ccnc(C(=O)N4CCN(C)CC4)c3)cc2CN1c1cc(N2CCN(C)CC2)nc(N)n1 (single isomer, unassigned) [Example 70, 4-[3-Methyl-7-{2-[(4-methylpiperazin-1-yl)carbonyl]pyridin-4-yl}-3,4-dihydroisoquinolin-2(1H)-yl]-6-(4-methylpiperazin-1-yl)pyrimidin-2-amine]",7.07
10,"CCNC(=O)c1ccc(-c2ccc3c(c2)CN(c2cc(N4CCN(C)CC4)nc(N)n2)C(C)C3)nc1 (single isomer, unassigned) [Example 71, 6-{2-[2-Amino-6-(4-methylpiperazin-1-yl)pyrimidin-4-yl]-3-methyl-1,2,3,4-tetrahydroisoquinolin-7-yl}-N-ethylnicotinamide]",6.82
11,"CC1Cc2ccc(-c3ccc(C(=O)N(C)C)cn3)cc2CN1c1cc(N2CCN(C)CC2)nc(N)n1 (single isomer, unassigned) [Example 72, 6-{2-[2-Amino-6-(4-methylpiperazin-1-yl)pyrimidin-4-yl]-3-methyl-1,2,3,4-tetrahydroisoquinolin-7-yl}-N,N-dimethylnicotinamide]",6.57
12,"CC1Cc2ccc(-c3ccc(C(=O)N4CC(O)C4)cn3)cc2CN1c1cc(N2CCN(C)CC2)nc(N)n1 (single isomer, unassigned) [Example 73, 1-[(6-{2-[2-Amino-6-(4-methylpiperazin-1-yl)pyrimidin-4-yl]-3-methyl-1,2,3,4-tetrahydroisoquinolin-7-yl}pyridin-3-yl)carbonyl]azetidin-3-ol]",6.71
13,"CC1Cc2ccc(-c3cncc(C(=O)N(C)C)c3)cc2CN1c1cc(N2CCN(C)CC2)nc(N)n1 (single isomer, unassigned) [Example 74, 5-{2-[2-Amino-6-(4-methylpiperazin-1-yl)pyrimidin-4-yl]-3-methyl-1,2,3,4-tetrahydroisoquinolin-7-yl}-N,N-dimethylnicotinamide]",6.83
14,"CC1Cc2ccc(-c3cncc(C(=O)N4CC(O)C4)c3)cc2CN1c1cc(N2CCN(C)CC2)nc(N)n1 (single isomer, unassigned) [Example 75, 1-[(5-{2-[2-Amino-6-(4-methylpiperazin-1-yl)pyrimidin-4-yl]-3-methyl-1,2,3,4-tetrahydroisoquinolin-7-yl}pyridin-3-yl)carbonyl]azetidin-3-ol]",7.00
15,"CCNC(=O)c1ncc(-c2ccc3c(c2)CN(c2cc(N4CCN(C)CC4)nc(N)n2)C(C)C3)cn1 (single isomer, unassigned) [Example 77, 5-{2-[2-Amino-6-(4-methylpiperazin-1-yl)pyrimidin-4-yl]-3-methyl-1,2,3,4-tetrahydroisoquinolin-7-yl}-N-ethylpyrimidine-2-carboxamide]",6.83
16,"CC1Cc2ccc(-c3cnc(C(=O)N4CC(O)C4)nc3)cc2CN1c1cc(N2CCN(C)CC2)nc(N)n1 (single isomer, unassigned) [Example 78, 1-[(5-{2-[2-Amino-6-(4-methylpiperazin-1-yl)pyrimidin-4-yl]-3-methyl-1,2,3,4-tetrahydroisoquinolin-7-yl}pyrimidin-2-yl)carbonyl]azetidin-3-ol]",6.87

# Other lines, results leading:
row,pIC50,SMILES
1,7.25,"CC1Cc2ccc(-c3ccnc(C(=O)N4CCC(N(C)C)C4)c3)cc2CN1c1cc(N2CCN(C)CC2)nc(N)n1 (single isomer, unassigned) [Example 67A, 4-[7-(2-{[3-(dimethylamino)pyrrolidin-1-yl]carbonyl}pyridin-4-yl)-3-methyl-3,4-dihydroisoquinolin-2(1H)-yl]-6-(4-methylpiperazin-1-yl)pyrimidin-2-amine]"
2,7.30,"CC1Cc2ccc(-c3ccnc(C(=O)N4CCC(N(C)C)C4)c3)cc2CN1c1cc(N2CCN(C)CC2)nc(N)n1 (single isomer, unassigned) [Example 67B, 4-[7-(2-{[3-(dimethylamino)pyrrolidin-1-yl]carbonyl}pyridin-4-yl)-3-methyl-3,4-dihydroisoquinolin-2(1H)-yl]-6-(4-methylpiperazin-1-yl)pyrimidin-2-amine]"
3,7.52,"CC1Cc2ccc(-c3ccnc(C(=O)N(C)CCN(C)C)c3)cc2CN1c1cc(N2CCN(C)CC2)nc(N)n1 (single isomer, unassigned) [Example 68A, 4-{2-[2-amino-6-(4-methylpiperazin-1-yl)pyrimidin-4-yl]-3-methyl-1,2,3,4-tetrahydroisoquinolin-7-yl}-N-[2-(dimethylamino)ethyl]-N-methylpyridine-2-carboxamide]"
4,7.49,"CC1Cc2ccc(-c3ccnc(C(=O)N(C)CCN(C)C)c3)cc2CN1c1cc(N2CCN(C)CC2)nc(N)n1 (single isomer, unassigned) [Example 68B, 4-{2-[2-amino-6-(4-methylpiperazin-1-yl)pyrimidin-4-yl]-3-methyl-1,2,3,4-tetrahydroisoquinolin-7-yl}-N-[2-(dimethylamino)ethyl]-N-methylpyridine-2-carboxamide]"
5,7.12,"CNC(=O)c1ccc(-c2ccc3c(c2)CN(c2cc(N4CCN(C)CC4)nc(N)n2)C(CO)C3)cn1 (single isomer, unassigned) [Example 81A, 5-[2-[2-amino-6-(4-methylpiperazin-1-yl)pyrimidin-4-yl]-3-(hydroxymethyl)-1,2,3,4-tetrahydroisoquinolin-7-yl]-N-methylpyridine-2-carboxamide]"
6,7.47,"CNC(=O)c1ccc(-c2ccc3c(c2)CN(c2cc(N4CCN(C)CC4)nc(N)n2)C(CO)C3)cn1 (single isomer, unassigned) [Example 81B, 5-[2-[2-amino-6-(4-methylpiperazin-1-yl)pyrimidin-4-yl]-3-(hydroxymethyl)-1,2,3,4-tetrahydroisoquinolin-7-yl]-N-methylpyridine-2-carboxamide]"
7,7.66,"CC1Cc2ccc(-c3ccn(CC#N)n3)cc2CN1c1cc(N2CCN(C)CC2)nc(N)n1 (single isomer, unassigned) [Example 82A, (3-{2-[2-Amino-6-(4-methylpiperazin-1-yl)pyrimidin-4-yl]-3-methyl-1,2,3,4-tetrahydroisoquinolin-7-yl}-1H-pyrazol-1-yl)acetonitrile]"
8,7.48,"CC1Cc2ccc(-c3ccn(CCC#N)n3)cc2CN1c1cc(N2CCN(C)CC2)nc(N)n1 (single isomer, unassigned) [Example 83A, 3-(3-{2-[2-Amino-6-(4-methylpiperazin-1-yl)pyrimidin-4-yl]-3-methyl-1,2,3,4-tetrahydroisoquinolin-7-yl}-1H-pyrazol-1-yl)propanenitrile]"
